Each structure is given as a SMILES string. Read-outs that look alike come from different tables or passages of the source.

The subject of one data set is Huh-5-2 cells. The data set is described as follows: Cytostatic effect on Huh-5-2 cells (MTS method, parallel cultures). The class given is cell-based. As to conditions: 72 hours, read-out: CC50 (concentration required to inhibit the proliferation of exponentially growing Huh-5-2 cells by 50%). On the procedure: (§1) Huh-5-2 cells [a cell line with a persistent HCV replicon I3891uc-ubi-neo/NS3-3′/5.1; replicon with firefly luciferase-ubiquitin-neomycin phosphotransferase fusion protein and EMCV-IRES driven NS3-5B HCV polyprotein] was cultured in RPMI medium (Gibco) supplemented with 10% fetal calf serum, 2 mM L-glutamine (Life Technologies), 1× non-essential amino acids (Life Technologies); 100 IU/ml penicillin and 100 ug/ml streptomycin and 250 ug/ml G418 (Geneticin, Life Technologies). Cells were seeded at a densitiy of 7000 cells per well in 96 well View Plate™ (Packard) in medium containing the same components as described above, except for G418. Cells were allowed to adhere and proliferate for 24 hr. At that time, culture medium was removed and serial dilutions of the test compounds were added in culture medium lacking G418. Interferon alfa 2a (500 IU) was included as a positive control. Plates were further incubated at 37° C. and 5% CO2 for 72 hours. Replication of the HCV replicon in Huh-5 cells results in luciferase activity in the cells. Luciferase activity is measured by adding 50 μl of 1× Glo-lysis buffer (Promega) for 15 minutes followed by 50 ul of the Steady-Glo Luciferase assay reagent (Promega). Luciferase activity is measured with a luminometer and the signal in each individual well is expressed as a percentage of the untreated cultures. Parallel cultures of Huh-5-2 cells, seeded at a density of 7000 cells/well of classical 96-well cell culture plates (Becton-Dickinson) are treated in a similar fashion except that no Glo-lysis buffer or Steady-Glo Luciferase reagent is added. Instead the density of the culture is measured by means of the MTS method (Promega).
For orientation: Tetrazolium dyes change colour on reduction, which living cells bring about.

The subject of the next data set is HCV Subgenomic Replicon. The data set can be described thus: HCV-Huh-5-2 replicon cell assay (luciferase). Type of data set: cell-based, Hepatitis C virus. As to conditions: for EC50: HCV subgenomic replicon in Huh-5-2 cells, 72 hours, luciferase, read-out: EC50 (concentration required to inhibit luciferase activity in the replicon system by 50%). Here is the method: as §1
On the technique in general: A replicon is a self-replicating genome or part of one, used to study replication in cells.

Data set [1] is described as follows: Cytostatic effect on Huh-5-2 cells (MTS method, parallel cultures). Particulars: human, read-out: CC50 (concentration required to inhibit the proliferation of exponentially growing Huh-5-2 cells by 50%). Type of data set: cell-based. On the procedure: as §1

With `CC(=O)OCC1OC(n2c(SCc3cc4cc(Br)ccc4oc3=O)nc3cc(Cl)c(Cl)cc32)C(OC(C)=O)C(OC(C)=O)C1OC(C)=O` (centres unmarked) [Compound 7g, Acetic acid 3,5-diacetoxy-2-acctoxymethyl-6-[2-(6-bromo-2-oxo-2H-chromen-3-ylmethylsulfanyl)-5,6-dichloro-benzoimidazol-1-yl]-tetrahydro-pyran-4-yl ester], in the data set on Huh-5-2 cells, the CC50 was over 64.8 µM. For the same molecule, the EC50 with HCV Subgenomic Replicon was determined as 4.08 µM.

Take `CC(=O)OCC1OC(n2c(SCc3cc4cc(Br)ccc4oc3=O)nc3ccccc32)CC(OC(C)=O)C1OC(C)=O` (centres unmarked) [Compound 22c, Acetic acid 3,4-diacetoxy-6-[2-(6-bromo-2-oxo-2H-chromen-3-ylmethylsulfanyl)-benzoimidazol-1-yl]-tetrahydro-pyran-2-ylmethyl ester]: the CC50 at 72 h in data set [1] is 16.1 µM. The EC50 in the data set with HCV Subgenomic Replicon (Hepatitis C virus) amounted to 4.08 µM. For the same molecule, the “SI (selectivity index, ratio of CC50 to EC50)” value in the data set with HCV Subgenomic Replicon (Huh-5-2 cells) came out at 3.95.

The values above are taken from patent US20090197910A1, “NOVEL VIRAL REPLICATION INHIBITORS” (KATHOLIEKE UNIVERSITEIT LEUVEN, priority 2006, published 2009).
